Results on one compound are retold here after paper PMC11206922, “Novel Histone Deacetylase (HDAC) Inhibitor Induces Apoptosis and Suppresses Invasion via E-Cadherin Upregulation in Pancreatic Ductal Adenocarcinoma (PDAC)” (Pharmaceuticals, 2024).

The experiment addresses T1, HDAC 2 (Homo sapiens, UniProt Q92769).
T1 construct: gene HDAC2
The experiment can be described thus: HDAC enzyme inhibition assay (details not shown). The format is biochemical.

T1 sequence (Q92769 whole entry): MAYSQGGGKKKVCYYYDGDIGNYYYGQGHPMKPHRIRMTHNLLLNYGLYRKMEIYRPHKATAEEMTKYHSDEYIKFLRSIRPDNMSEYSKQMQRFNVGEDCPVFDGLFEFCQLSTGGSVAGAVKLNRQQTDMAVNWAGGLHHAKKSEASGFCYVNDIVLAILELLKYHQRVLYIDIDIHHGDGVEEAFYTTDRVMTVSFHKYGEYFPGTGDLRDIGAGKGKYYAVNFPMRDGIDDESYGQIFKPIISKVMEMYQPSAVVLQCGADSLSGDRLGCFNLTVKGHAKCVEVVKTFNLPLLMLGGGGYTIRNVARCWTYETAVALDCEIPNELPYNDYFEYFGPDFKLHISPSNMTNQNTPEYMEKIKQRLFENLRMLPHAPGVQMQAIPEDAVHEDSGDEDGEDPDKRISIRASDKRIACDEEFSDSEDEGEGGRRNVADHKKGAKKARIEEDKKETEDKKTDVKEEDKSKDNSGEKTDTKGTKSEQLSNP

Usually IC50 stands for the concentration that gives 50% inhibition. Lower therefore signals higher potency. Consider `COc1cc(NC(=O)NCCCCCCC(=O)NO)c2nc(OC)cc(C)c2c1` [compound 8, MPK544], for which the half-inhibitory concentration (IC50) was 58 ± 20 nM.
